Literature values, collected in patent US20100021614A1, “COMPOSITION FOR PROMOTING BIOABSORPTION OF FLAVONOID, FOOD/BEVERAGE FOR PROMOTING BIOABSORPTION OF FLAVONOID USING THE COMPOSITION, AND METHOD FOR PRODUCTION OF THE FOOD/BEVERAGE” (priority 2006, published 2010).

Details: Wakui et al., J. Chromatog., 575, 131-136 (1992)

- fraction of the amount administered that is absorbed: 1/300
SMILES: O=c1cc(-c2ccccc2)oc2cc(O)c(O)c(O)c12 [baicalein]
